Measurements: patent US8084610B2, “Compositions and methods for detecting and treating tumors containing acidic areas” (priority 2006, dated 2011)
Values belong to the molecule of their own block, whether it stands above or below them.

Experiments:
tumors = settings: tumor-bearing mice; reduction of about 0.3 pH units in the tumors; cited from earlier work
[1] = Titration assay of sodium salts with 5 M HCl (pKa / effective pKa)
Method: Typically new structures that may be suitable as advanced pH-switch components are first assessed for their pKa value in normal saline. This entails preparing the sodium salt form of the structure and dissolving it at a concentration of 20 milliMolar in 15 ml of 0.15 Molar NaCl (deareated to remove CO2). […] A plot of pH versus volume of added HCl affords the effective pKa value. It is also desirable to carry out this same titration in methanol/water (1:1 by vol) in order to get an estimate of the pKa value independent of insolubility effects.
The compound in FIG. 12a was prepared by reacting camphoric anhydride with dimethylamine. The compound in FIG. 12b was prepared by reacting camphoric anhydride with ethylamine. The sodium salts of compounds shown in FIG. 12a (designed to form an internal acid-specific H-bond) and 12b (designed to form non-acid-specific H-bonds) were titrated in aqueous solution.
The two compounds in FIG. 15 were prepared by reacting the respective anhydrides with dimethylamine, and then the sodium salts titrated in methanol/water, 1:1 by volume—in order to preclude insolubility effects impacting the titration curve.
The methyl ester of isonipocotic acid was alkylated with bromopropane and then the resultant tertiary amine oxidized to the N-oxide with meta-Chlorobenzoylperoxide. Finally, the ester was cleaved with aqueous sodium hydroxide to give structure iii in FIG. 16b. This product in its sodium salt form was titrated in water.

SMILES: O=C(O)CCCc1ccc(N(CCCl)CCCl)cc1 [Chlorambucil]
- improvement in tumor growth delay (tumors): 1.7 fold

SMILES: CN(C)C(=O)C=CC(=O)O [FIG. 14b]
- pKa value (mid-point of the transition between salt and acid) ([1]; sodium salt titrated with HCl in water / aqueous solution): below 3.0

- first derivative of titration plot, minimum attributed to N-oxide moiety (pH) ([1]; sodium salt titrated in water): ~4.0
- first derivative of titration plot, other minimum (pH), attributed to internal low-barrier H-bond ([1]; sodium salt titrated in water): ~5.6
SMILES: CCC[N+]1([O-])CCC(C(=O)O)CC1 (stereo not shown) [structure iii in FIG. 16b, N-oxide of N-propylisonipocotic acid]
